Each block holds one compound with its values, some of them ahead of it.
Legend:
Type in all cases: biochemical
[1] = biological target: T1, hDGAT1 (Homo sapiens, UniProt O75907); assay: inhibitory activity against hDGAT1 (CPM fluorescence)
T1 construct: made in house; host or cells: insect cells
T1 sequence (O75907 1-488): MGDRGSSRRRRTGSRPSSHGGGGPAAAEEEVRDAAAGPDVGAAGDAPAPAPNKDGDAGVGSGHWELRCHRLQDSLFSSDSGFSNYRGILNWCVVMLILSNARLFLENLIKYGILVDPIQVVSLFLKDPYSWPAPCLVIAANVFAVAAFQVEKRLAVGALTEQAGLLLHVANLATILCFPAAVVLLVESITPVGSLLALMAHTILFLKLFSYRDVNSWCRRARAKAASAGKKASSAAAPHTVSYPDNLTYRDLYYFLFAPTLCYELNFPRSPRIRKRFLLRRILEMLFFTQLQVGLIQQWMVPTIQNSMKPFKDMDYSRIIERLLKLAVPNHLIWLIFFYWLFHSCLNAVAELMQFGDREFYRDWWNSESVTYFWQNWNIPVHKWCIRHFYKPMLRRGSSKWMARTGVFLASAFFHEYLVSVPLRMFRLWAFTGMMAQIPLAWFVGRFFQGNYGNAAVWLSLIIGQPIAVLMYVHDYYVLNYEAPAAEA
Procedure: Experimental method: (1) the effect of the extract of Glechoma longituba (Nakai) Kupr., LQC-H-1, on serum triglyceride level was evaluated in acute hypertriglyceridemic mouse model; 6-week old male C57BL/KsJ mice (Shanghai Slac Laboratory Animal Company), 8 for each group, weight of 20±2 g, were fed according to SPF grade operation procedure and fasted overnight for 16 hours prior to experiment. Compounds of different concentrations were intragastric administrated to each administration group of mice, respectively. Equal volume of water was given to control group and blank group of mice. 30 mins later, 2 g/kg olive oil was intragastric administrated to administration group and control group of mice, while equal volume of water was given to blank group of mice. 2 hours later, blood was collected from orbital vein of each group of mice for the separation of serum, and concentration of triglyceride in the serum was measured; (2) inhibitory activity of the individual compounds separated from the extract of Glechoma longituba (Nakai) Kupr., LQC-H-1, against diacylglycerol acyltransferase (DGAT): human derived DGAT1 obtained by expression and purification with insect cells were pre-incubated together with the compounds, substrate diacylglycerol was added to initiate the reaction in the presence of coenzyme A, fluorescence signal generated by the combination of produced sulfydryl and CPM was measured, and the inhibitory activity of the compound against DGAT was calculated according to the following formula: Inhibition rate %=(OD blank−OD compound)/(OD blank−OD negative control)*100%
(§1) OD compound, OD blank, and OD negative control represented the fluorescence values from a compound well, a blank well, and a negative control well free of DGAT1 enzyme, and the concentrations of the compounds when the enzyme activity inhibition rate (%) reached 50% were set as IC50 value; (3) inhibitory activity of the individual compounds separated from the extract of Glechoma longituba (Nakai) Kupr., LQC-H-1, against pancrelipase: substrate p-Nitrophenyl acetate (Sigma, USA) was formulated to 1.35 mM with phosphate buffer (25 mM, pH 6.8); porcine pancrelipase (Sigma) was formulated to 10 mg/ml with phosphate buffer; brominated eneyne compounds were formulated to solutions of different concentrations with phosphate buffer. Then, 50 μl of 1.35 mM p-Nitrophenyl acetate (Sigma, USA) solution and 10 μl of test compounds of different concentrations were sequentially added into a 96-well plate and pre-incubated at 37° C. for 5 mins. Finally, 50 μl of 10 mg/ml pancrelipase (EC 3.1.1.3, Sigma, USA) was added and mixed. The reaction proceeded at 37° C. for further 20 mins Absorbance of each well was measured at 492 nm. The inhibition rates (%) of the test samples against pancrelipase were calculated based on the absorbance at 492 nm. The concentrations of the compounds when then enzyme activity inhibition rate (%) reached 50% was set as IC50 value. The inhibition rate (%) could be calculated according to the following formula: Inhibition rate (%)=[(A−B)−(C−D)]/(A−B)×100

[2] = biological target: T2, porcine pancrelipase (Sus scrofa, UniProt P00591); assay: inhibitory activity against pancrelipase (p-Nitrophenyl acetate substrate); details: 10 μM
T2 construct: purchased Sigma
T2 sequence (P00591 1-450): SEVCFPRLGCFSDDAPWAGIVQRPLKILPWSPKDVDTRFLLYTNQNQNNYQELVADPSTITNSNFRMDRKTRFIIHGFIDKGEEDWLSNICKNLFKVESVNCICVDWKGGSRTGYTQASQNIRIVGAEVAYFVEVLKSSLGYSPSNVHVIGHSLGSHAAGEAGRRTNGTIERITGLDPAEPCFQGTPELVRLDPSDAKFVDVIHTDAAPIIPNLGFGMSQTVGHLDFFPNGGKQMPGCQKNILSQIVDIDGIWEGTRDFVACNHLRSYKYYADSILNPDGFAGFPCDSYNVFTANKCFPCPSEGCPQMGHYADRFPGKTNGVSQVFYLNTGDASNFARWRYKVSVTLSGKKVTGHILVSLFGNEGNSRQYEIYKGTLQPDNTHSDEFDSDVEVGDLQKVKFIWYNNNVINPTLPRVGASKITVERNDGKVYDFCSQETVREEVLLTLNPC
Excerpt: as §1
In the above formula, A, B, C, and D represented the absorbance of a blank well after the reaction, the absorbance of a blank well prior to the reaction, the absorbance of a sample well after the reaction, and the absorbance of a sample well prior to the reaction.

[3] = biological target: T3, glucose oxidase (GOX) (Homo sapiens, UniProt Q9UJM8); assay: inhibitory activity against glucose oxidase (GOX), enzyme coupling method with glycolic acid substrate; design: Vmax: unit not given here
T3 sequence (Q9UJM8 1-370): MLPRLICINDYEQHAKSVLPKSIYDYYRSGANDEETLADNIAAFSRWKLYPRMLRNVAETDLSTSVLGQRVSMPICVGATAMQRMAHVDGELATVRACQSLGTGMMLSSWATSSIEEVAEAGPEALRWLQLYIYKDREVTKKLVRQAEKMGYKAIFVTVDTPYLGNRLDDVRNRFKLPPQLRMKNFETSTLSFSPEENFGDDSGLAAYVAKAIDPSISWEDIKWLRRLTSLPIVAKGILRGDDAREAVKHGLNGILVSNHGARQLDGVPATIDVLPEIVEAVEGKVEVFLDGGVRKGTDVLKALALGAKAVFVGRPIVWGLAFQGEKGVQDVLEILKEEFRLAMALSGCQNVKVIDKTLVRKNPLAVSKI
Procedure: Mechanism of experiment: enzyme coupling method utilizes peroxidase (POD) and substrates thereof to react with generated H2O2 to produce colored products so as to determine the catalytic reaction rate of glucose oxidase. POD catalyzes H2O2 to react with phenol and 4-amino antipyrine to produce brown-red quinone substances.
Experimental method: reagents were added according to the table below; the reaction was immediately initiated upon the final addition of substrate glycolic acid; the kinetic course of the reaction was detected by microplate reader; the enzyme activity was represented by Vmax, maximum reaction velocity.
The measurement results were fitted by Graphpad Prism 5.0 to calculate IC50 values.

Inhibition rate (%) (10 μM) against hDGAT1 ([1]; 10 μM): 83.36% | Inhibition rate (%) (50 μM) against hDGAT1 ([1]; 50 μM): 97.51%
SMILES: O=C(Nc1ccccc1)Nc1ccc(-c2ccc(C(=O)[C@@H]3CCC[C@H]3C(=O)O)cc2)cc1 [A 922500, reference compound]

Inhibition rate % (10 μM) against pancrelipase [2]: 83.96%
SMILES: CCCCCCCCCCC[C@@H](C[C@@H]1OC(=O)[C@H]1CCCCCC)OC(=O)[C@H](CC(C)C)NC=O [Olistat, reference compound]

Vmax ([3]; 0.1 μM): 34.68 ± 0.06 | inhibition at 0.1 µM ([3]; 0.1 μM, read-out: Inhibition rate): 2.82 ± 0.16% | Vmax ([3]; 0.3 μM): 34.66 ± 0.20 | inhibition at 0.3 µM ([3]; 0.3 μM, read-out: Inhibition rate): 2.87 ± 0.57% | Vmax ([3]; 1 μM): 33.85 ± 0.55 | inhibition at 1 µM ([3]; 1 μM, read-out: Inhibition rate): 5.12 ± 1.53% | Vmax ([3]; 3 μM): 30.21 ± 0.12 | inhibition at 3 µM ([3]; 3 μM, read-out: Inhibition rate): 15.3 ± 0.32% | Vmax ([3]; 10 μM): 26.55 ± 0.15 | inhibition at 10 µM ([3]; 10 μM, read-out: Inhibition rate): 25.6 ± 0.41% | Vmax ([3]; 30 μM): 16.54 ± 0.12 | inhibition at 30 µM ([3]; 30 μM, read-out: Inhibition rate): 53.66 ± 0.34% | Vmax ([3]; 100 μM): −1.40 ± 8.87 | inhibition at 100 µM ([3]; 100 μM, read-out: Inhibition rate): 104 ± 24.9% | IC50 ([3]; fitted by Graphpad Prism 5.0): 21 µM
SMILES: O=c1c(O)c(-c2ccc(O)c(O)c2)oc2cc(O)cc(O)c12 [Quercetin, reference compound]
